This data set is described as follows: Measurement of Log P values by HPLC on reversed phase columns (EEC directive 79/831 Annex V.A8). It is filed as physicochemical. The procedure:
Measurement of Log P values as provided herein was performed according to EEC directive 79/831 Annex V.A8 by HPLC (High Performance Liquid Chromatography) on reversed phase columns with the following methods: • ^[a] Log P value is determined by measurement of LC-UV, in an acidic range, with 0.1% formic acid in water and acetonitrile as eluent (linear gradient from 10% acetonitrile to 95% acetonitrile). • ^[b] Log P value is determined by measurement of LC-UV, in a neutral range, with 0.001 molar ammonium acetate solution in water and acetonitrile as eluent (linear gradient from 10% acetonitrile to 95% acetonitrile). • ^[c] Log P value is determined by measurement of LC-UV, in an acidic range, with 0.1% phosphoric acid and acetonitrile as eluent (linear gradient from 10% acetonitrile to 95% acetonitrile).
If more than one Log P value is available within the same method, all the values are given and separated by “+”.
Calibration was done with straight-chain alkan2-ones (with 3 to 16 carbon atoms) with known Log P values (measurement of Log P values using retention times with linear interpolation between successive alkanones). Lambda-max-values were determined using UV-spectra from 200 nm to 400 nm and the peak values of the chromatographic signals
As for `Cc1ccc(/C(F)=C\NC(=O)c2nc(C3CC3)nnc2Oc2cccc(Cl)c2F)c(C)c1` [Compound I-109], the LogP was 5.00^[a]. On to `Cc1nnc(Oc2cccc(C(F)(F)F)c2)c(C(=O)NCC2(c3ccc(Cl)cc3)COC2)n1` [Compound I-110], for which the LogP was 3.35^[a]. As for `CCN(CCc1ccccc1)C(=O)c1nc(C)ncc1Oc1cccc(C2CC2)c1F` [Compound I-111], the LogP is 4.04^[a].

As to `Cc1ccc(/C(F)=C/NC(=O)c2nc(C3CC3)nnc2Oc2cccc(C3CC3)c2F)c(C)c1` [Compound I-112], the LogP was 5.20^[a]. Under `Cc1ncc(Oc2cccc(C3CC3)c2F)c(C(=O)NC2CCOc3c(C)cccc32)n1` (centres unmarked) [Compound I-113] stands 4.02^[a].

`Cc1ncc(Oc2cccc(C3CC3)c2F)c(C(=O)NC2CCCc3ccc(Cl)cc32)n1` (centres unmarked) [Compound I-114]: the LogP is 4.46^[a]. For `C=Cc1cccc(Oc2cnc(C)nc2C(=O)NCC(F)(F)c2ccc(C)cc2C)c1` [Compound I-115], the LogP is 4.17^[a]. The result for `COc1ccc2c(c1)C(NC(=O)c1nc(C)ncc1Oc1cccc(C3CC3)c1F)C(OC)CC2` (centres unmarked) [Compound I-116] reads 3.99^[a].

Turning to `Cc1ccc(C(F)(F)CNC(=O)c2nc(C)nnc2Oc2cccc(C3CC3)c2)c(C)c1` [Compound I-117], the LogP is 4.33^[a]. Take `Cc1ccc(C(F)(F)CNC(=O)c2nc(C)ncc2Oc2cnc3c(c2)CCC3)c(C)c1` [Compound I-118]: the LogP was 2.78^[a].

Turning to `Cc1nnc(Oc2cccc(C(F)(F)F)c2)c(C(=O)NC(C)c2cccc(C(F)(F)F)c2)n1` (centres unmarked) [Compound I-119], the LogP is 3.77^[a]. As for `Cc1ccc(C(F)(F)CNC(=O)c2nc(C)ncc2Oc2cnc3ccccc3c2)c(C)c1` [Compound I-120], the LogP is 3.40^[a].

With `Cc1ccc(C(F)(F)CNC(=O)c2nc(C3CC3)nnc2Oc2cccc(C(F)(F)F)c2)c(C)c1` [Compound I-121], the LogP is 4.74^[a].

With `Cc1ccc(C(F)(F)CNC(=O)c2nc(C)ncc2Oc2cccc(-n3ccc(C(F)(F)F)n3)c2)c(C)c1` [Compound I-122], the LogP is 4.54^[a]. Regarding `CCON(Cc1ccccc1)C(=O)c1nc(C)ncc1Oc1cccc(C2CC2)c1F` [Compound I-123], the LogP is 3.97^[a]. Regarding `Cc1ncc(Oc2cccc(C3CC3)c2F)c(C(=O)NCCc2ccc3c(c2)OCO3)n1` [Compound I-124], the LogP is 3.34^[a]. In the case of `CSc1cccc(Oc2cnc(C)nc2C(=O)NCC(F)(F)c2ccc(C)cc2C)c1` [Compound I-126], the LogP is 4.11^[a]. The result for `Cc1ccc(C(F)(F)CNC(=O)c2nc(C)ncc2Oc2ccc3c(c2)CCO3)c(C)c1` [Compound I-128] reads 3.59^[a]. On to `Cc1ccc(C(F)(F)CNC(=O)c2nc(C)ncc2Oc2ccc(F)c(Cl)c2)c(C)c1` [Compound I-129], for which the LogP is 4.20^[a]. For the compound `Cc1ccc(C(F)(F)CNC(=O)c2nc(C3CC3)nnc2Oc2cccc(C(F)(F)F)c2)c(Cl)c1` [Compound I-130], the LogP was 4.66^[a].

For the compound `Cc1ccc(C(F)(F)CNC(=O)c2nc(C3CC3)nnc2Oc2cccc(Cl)c2F)c(C)c1` [Compound I-131], the LogP is 4.62^[a].

As to `Cc1ccc(C(F)=CNC(=O)c2nc(C3CC3)nnc2Oc2cccc(Br)c2)c(C)c1` [Compound I-132], the LogP was 4.97^[a]. `Cc1ncc(Oc2cccc(C3CC3)c2F)c(C(=O)NCCc2csc(C)c2C)n1` [Compound I-134]: the LogP is 4.10^[a].

These data come from US12520844B2 (Bayer Aktiengesellschaft, priority 2020, dated 2026).
